≈ marks a conversion by molar mass, not a printed value.
Tests used:
Enterococcus sp. = assay: in vitro antibacterial evaluation, MIC by broth dilution; assay type: cell-based; details: broth dilution, 18 hours at 35° C.
In short: (§1)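 MIC = lowest antibiotic concentration preventing visible growth; inoculum 5×10^5 CFU/mL; drug range 64-0.06 μg/mL; Muller-Hinton II […]; NCCLS M7-A2 guidance.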

Escherichia coli = assay: as above; assay type: cell-based; details: 18 hours at 35° C.
In short: as §1

Staphylococcus sp. = assay: as above; assay type: cell-based; details: broth dilution, 18 hours at 35° C.
In short: as §1

Streptococcus sp. = assay: as above; assay type: cell-based; details: broth dilution, 18 hours at 35° C.
In short: as §1

[1] = clinical pathology (serum clinical chemistry) in mice; assay type: in vivo; details: CD-1 mice, 20 mg/kg intravenously daily for 9 days, sera day 10
Procedure: 20-day-old CD-1 mice were divided into a vehicle control group (5 mice) and a treatment group (5 mice). Samples of glycopeptide antibiotics were administered at 20 mg/kg intravenously daily for 9 days.

[2] = anatomic pathology (histopathology of heart and kidney) in mice; assay type: in vivo; details: CD-1 mice, 20 mg/kg intravenously daily for 9 days, necropsy day 10, microscopic histopathology
Procedure: Samples of tissues from necropsied mice were formalin-fixed, paraffin-embedded, sectioned, stained with hematoxylin and eosin, and examined microscopically. Histopathologic findings were recorded. These findings were subjectively graded on a scale corresponding to slight, mild, moderate, marked and severe as compared to untreated controls.

SMILES: CC(c1ccccc1)C1NC(=O)CNC(=O)C(CO)NC(=O)C(C(O)C2CNC(=N)N2C2OC(CO)C(O)C(O)C2O)NC(=O)C(C(O)C2CNC(=N)N2)NC(=O)C(Cc2ccc(OC3OC(CO)C(OC4OC5COC(Cc6ccccc6)OC5C(O)C4O)C(O)C3O)cc2)NC1=O (stereo not drawn) [Example 102, Cyclo[glycyl-β-methylphenylalanyl-O-[4-O-(4,6-O-phenethylidenehexopyranosyl)-hexopyranosyl]tyrosyl-3-(2-iminoimidazolidin-4-yl)seryl-3-(3-hexopranosyl-2-iminoimidazolidin-4-yl)serylseryl]]
- MIC Enterococcus avium (GC 4558) (Enterococcus sp.; Enterococcus avium (GC 4558)): 2 to 4 µg/mL
- MIC Enterococcus faecalis (ATCC 29212) (Enterococcus sp.; Enterococcus faecalis (ATCC 29212)): 2 to 4 µg/mL
- MIC Enterococcus faecalis (GC 2242) (Enterococcus sp.; Enterococcus faecalis (GC 2242)): 2 to 4 µg/mL
- MIC Enterococcus faecalis (GC 2691) (Enterococcus sp.; Enterococcus faecalis (GC 2691)): 2 to 4 µg/mL
- MIC Enterococcus faecalis (GC 3059) (Enterococcus sp.; Enterococcus faecalis (GC 3059)): 2 to 4 µg/mL
- MIC Enterococcus faecalis (GC 4552) (Enterococcus sp.; Enterococcus faecalis (GC 4552)): 2 to 4 µg/mL
- MIC Enterococcus faecalis (GC 4553) (Enterococcus sp.; Enterococcus faecalis (GC 4553)): 2 to 4 µg/mL
- MIC Enterococcus faecalis (GC 4554) (Enterococcus sp.; Enterococcus faecalis (GC 4554)): 2 to 4 µg/mL
- MIC Enterococcus faecalis (GC 6189) (Enterococcus sp.; Enterococcus faecalis (GC 6189)): 2 to 4 µg/mL
- MIC Enterococcus faecium (GC 2243) (Enterococcus sp.; Enterococcus faecium (GC 2243)): 2 to 4 µg/mL
- MIC Enterococcus faecium (GC 4556) (Enterococcus sp.; Enterococcus faecium (GC 4556)): 2 to 4 µg/mL
- MIC Enterococcus faecium (GC 4557) (Enterococcus sp.; Enterococcus faecium (GC 4557)): 1 to 2 µg/mL
- MIC Enterococcus faecalis (ATCC 29212) (Enterococcus sp.; strain ATCC 29212): 2 to 4 µg/mL
- MIC Enterococcus faecalis (GC 2242) (Enterococcus sp.; strain GC 2242): 2 to 4 µg/mL
- MIC Enterococcus faecium (GC 2243) (Enterococcus sp.; strain GC 2243): 2 to 4 µg/mL
- MIC Enterococcus faecalis (GC 2691) (Enterococcus sp.; strain GC 2691): 2 to 4 µg/mL
- MIC Enterococcus faecalis (GC 3059) (Enterococcus sp.; strain GC 3059): 2 to 4 µg/mL
- MIC Enterococcus faecalis (GC 4552) (Enterococcus sp.; strain GC 4552): 2 to 4 µg/mL
- MIC Enterococcus faecalis (GC 4553) (Enterococcus sp.; strain GC 4553): 2 to 4 µg/mL
- MIC Enterococcus faecalis (GC 4554) (Enterococcus sp.; strain GC 4554): 2 to 4 µg/mL
- MIC Enterococcus faecium (GC 4556) (Enterococcus sp.; strain GC 4556): 2 to 4 µg/mL
- MIC Enterococcus faecium (GC 4557) (Enterococcus sp.; strain GC 4557): 1 to 2 µg/mL
- MIC Enterococcus avium (GC 4558) (Enterococcus sp.; strain GC 4558): 2 to 4 µg/mL
- MIC Enterococcus faecalis (GC 6189) (Enterococcus sp.; strain GC 6189): 2 to 4 µg/mL
- MIC Escherichia coli (ATCC 25922) (Escherichia coli; strain ATCC 25922): 16 to 64 µg/mL
- MIC Escherichia coli (GC 4559) (Escherichia coli; strain GC 4559): 16 to 32 µg/mL
- MIC Escherichia coli (GC 4560) (Escherichia coli; strain GC 4560): 0.5 to 1 µg/mL
- MIC Coagulase Negative Staphylococcus (GC 4547) (Staphylococcus sp.): 1 µg/mL (≈ 0.716 µM)
- MIC Coagulase Negative Staphylococcus (GC 4548) (Staphylococcus sp.): 0.5 to 1 µg/mL
- MIC Coagulase Negative Staphylococcus (GC 4549) (Staphylococcus sp.): 0.5 to 1 µg/mL
- MIC Coagulase Negative Staphylococcus (GC 4551) (Staphylococcus sp.): 1 to 2 µg/mL
- MIC Coagulase Negative Staphylococcus (GC 6257) (Staphylococcus sp.): 0.5 µg/mL (≈ 0.358 µM)
- MIC Staphylococcus aureus (ATCC 29213) (Staphylococcus sp.): 1 to 2 µg/mL
- MIC Staphylococcus aureus (GC 1131) (Staphylococcus sp.): 2 µg/mL (≈ 1.43 µM)
- MIC Staphylococcus aureus (GC 3051) (Staphylococcus sp.): 1 µg/mL (≈ 0.716 µM)
- MIC Staphylococcus aureus (GC 3053) (Staphylococcus sp.): 1 to 2 µg/mL
- MIC Staphylococcus aureus (GC 4541) (Staphylococcus sp.): 1 to 2 µg/mL
- MIC Staphylococcus aureus (GC 4542) (Staphylococcus sp.): 0.5 to 1 µg/mL
- MIC Staphylococcus aureus (GC 4544) (Staphylococcus sp.): 1 to 2 µg/mL
- MIC Staphylococcus aureus (GC 4545) (Staphylococcus sp.): 0.5 to 1 µg/mL
- MIC Staphylococcus aureus-SMITH (GC 4543) (Staphylococcus sp.): 0.5 to 1 µg/mL
- MIC Staphylococcus haemolyticus (GC 4546) (Staphylococcus sp.): 0.5 to 1 µg/mL
- MIC Staphylococcus haemolyticus (GC 4546) (Staphylococcus sp.; strain GC 4546): 0.5 to 1 µg/mL
- MIC Coagulase Negative Staphylococcus (GC 4547) (Staphylococcus sp.; strain GC 4547): 1 µg/mL (≈ 0.716 µM)
- MIC Coagulase Negative Staphylococcus (GC 4548) (Staphylococcus sp.; strain GC 4548): 0.5 to 1 µg/mL
- MIC Coagulase Negative Staphylococcus (GC 4549) (Staphylococcus sp.; strain GC 4549): 0.5 to 1 µg/mL
- MIC Coagulase Negative Staphylococcus (GC 4551) (Staphylococcus sp.; strain GC 4551): 1 to 2 µg/mL
- MIC Coagulase Negative Staphylococcus (GC 6257) (Staphylococcus sp.; strain GC 6257): 0.5 µg/mL (≈ 0.358 µM)
- MIC Staphylococcus aureus-SMITH (GC 4543) (Staphylococcus sp.; strain SMITH GC 4543): 0.5 to 1 µg/mL
- MIC Staphylococcus aureus (ATCC 29213) (Staphylococcus sp.; strain ATCC 29213): 1 to 2 µg/mL
- MIC Staphylococcus aureus (GC 1131) (Staphylococcus sp.; strain GC 1131): 2 µg/mL (≈ 1.43 µM)
- MIC Staphylococcus aureus (GC 3051) (Staphylococcus sp.; strain GC 3051): 1 µg/mL (≈ 0.716 µM)
- MIC Staphylococcus aureus (GC 3053) (Staphylococcus sp.; strain GC 3053): 1 to 2 µg/mL
- MIC Staphylococcus aureus (GC 4541) (Staphylococcus sp.; strain GC 4541): 1 to 2 µg/mL
- MIC Staphylococcus aureus (GC 4542) (Staphylococcus sp.; strain GC 4542): 0.5 to 1 µg/mL
- MIC Staphylococcus aureus (GC 4544) (Staphylococcus sp.; strain GC 4544): 1 to 2 µg/mL
- MIC Staphylococcus aureus (GC 4545) (Staphylococcus sp.; strain GC 4545): 0.5 to 1 µg/mL
- MIC Streptococcus agalactiae (GC 4564) (Streptococcus sp.; Streptococcus agalactiae (GC 4564)): <0.12 to 0.25 µg/mL
- MIC Streptococcus pneumoniae (ATCC 6301) (Streptococcus sp.; Streptococcus pneumoniae (ATCC 6301)): <0.06 µg/mL
- MIC Streptococcus pneumoniae (GC 1894) (Streptococcus sp.; Streptococcus pneumoniae (GC 1894)): <0.06 µg/mL
- MIC Streptococcus pyogenes (GC 4563) (Streptococcus sp.; Streptococcus pyogenes (GC 4563)): <0.12 to 0.25 µg/mL
- MIC Streptococcus pneumoniae (ATCC 6301) (Streptococcus sp.; strain ATCC 6301): <0.06 µg/mL
- MIC Streptococcus pneumoniae (GC 1894) (Streptococcus sp.; strain GC 1894): <0.06 µg/mL
- MIC Streptococcus pyogenes (GC 4563) (Streptococcus sp.; strain GC 4563): <0.12 to 0.25 µg/mL
- MIC Streptococcus agalactiae (GC 4564) (Streptococcus sp.; strain GC 4564): <0.12 to 0.25 µg/mL
- Clinical Chemistry (Day 10) % of Control, ALT [1]: +672%
- Clinical Chemistry (Day 10) % of Control, AST [1]: +340%
- Clinical Chemistry (Day 10) % of Control, BUN [1]: +249%
- Clinical Chemistry (Day 10) % of Control, Creatinine [1]: +100%
- Anatomical Pathology (Day 10), Heart [2]: +++
- Anatomical Pathology (Day 10), Kidney [2]: +++

Source: patent publication US6914045B2, “Glycopeptide antibiotics” (Wyeth Holdings Corporation, priority 2001, dated 2005)
